The target in the assay is T1, catalytic domain of human Bub1 (amino acids 704-1085) (Homo sapiens, UniProt O43683).
T1 construct: catalytic domain of human Bub1 (amino acids 704-1085); His6 (N); made in house; host or cells: Hi5 insect cells
Description: Bub1 kinase assay (TR-FRET). The assay is classed as biochemical. The gist of the method:
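Compounds from 2 mM DMSO stocks, serially diluted 1:3.4, incubated with enzyme at 22° C for 60 min. Stopped with EDTA, then 1 h with streptavidin-XL665, anti-phosphoserine antibody and Eu-labelled anti-mouse IgG. Phosphorylated biotin-peptide read by TR-FRET; IC50 by 4-parameter logistic fit.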
For orientation: In TR-FRET formats the signal depends on donor and acceptor labels being close together.

Setting [1] is: Biological Assay 1: Bub1 kinase assay median IC50, 10 μM ATP.
Setting [2] is: 10 μM ATP, read-out: Biological Assay 1: Bub1 kinase assay median IC50.

Values joined by “and” are separate entries in the source; they are usually repeats but may differ in a detail not shown here. Identical values can stand only once. Counter-ions that a name gives are not always drawn. Like-named read-outs stand apart in the source and are kept apart here.

T1 sequence (O43683 704-1085): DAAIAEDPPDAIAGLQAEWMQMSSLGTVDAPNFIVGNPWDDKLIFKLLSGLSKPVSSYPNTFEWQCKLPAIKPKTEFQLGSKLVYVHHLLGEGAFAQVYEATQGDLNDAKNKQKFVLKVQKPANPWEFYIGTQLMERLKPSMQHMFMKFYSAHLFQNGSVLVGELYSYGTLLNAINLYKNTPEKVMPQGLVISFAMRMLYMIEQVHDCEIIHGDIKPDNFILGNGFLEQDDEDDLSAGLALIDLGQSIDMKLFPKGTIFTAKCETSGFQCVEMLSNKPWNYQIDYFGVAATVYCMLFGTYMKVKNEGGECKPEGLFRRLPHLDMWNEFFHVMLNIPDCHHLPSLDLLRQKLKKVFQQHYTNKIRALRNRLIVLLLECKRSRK

As a reminder, the IC50 is the concentration at which inhibition is half-maximal. On to `CCOc1cc(F)c(Cn2nc(-c3ncc(CCCSC)c(Nc4ccncc4)n3)c3ccccc32)c(F)c1` [Example 2-2-2, 2-[1-(4-ethoxy-2,6-difluorobenzyl)-1H-indazol-3-yl]-5-[3-(methylsulfanyl)propyl]-N-(pyridin-4-yl)pyrimidin-4-amine], for which the IC50 under setting [1] worked out at 12 nM.

On to `CCOc1cc(F)c(Cn2nc(-c3ncc(CC4CNC4)c(Nc4cc(C)ncc4C)n3)c3ccccc32)c(F)c1` [Example 2-9-19, 5-(azetidin-3-ylmethyl)-N-(2,5-dimethylpyridin-4-yl)-2-[1-(4-ethoxy-2,6-difluorobenzyl)-1H-indazol-3-yl]pyrimidin-4-amine, salt with hydrochloric acid], for which the IC50 under setting [1] turned out to be 44 nM. On to `CCOc1cc(F)c(Cn2nc(-c3nc(Nc4ccnc(C)n4)cc(-c4nccs4)n3)c3ccccc32)c(F)c1` [Example 2-12-96, 2-[1-(4-ethoxy-2,6-difluorobenzyl)-1H-indazol-3-yl]-N-(2-methylpyrimidin-4-yl)-6-(1,3-thiazol-2-yl)pyrimidin-4-amine], for which the IC50 under setting [1] is > 20000 nM and 9200 nM. As to `CCOc1cc(F)c(Cn2nc(-c3nc4c(c(Nc5ccncc5Cl)n3)CCC4)c3ccccc32)c(F)c1` [Example 2-14-7, N-(3-chloropyridin-4-yl)-2-[1-(4-ethoxy-2,6-difluorobenzyl)-1H-indazol-3-yl]-6,7-dihydro-5H-cyclopenta[d]pyrimidin-4-amine], under setting [1], inhibition was half-maximal at 9.7 nM (IC50). As for `CCOc1cc(F)c(Cn2nc(-c3ncc(CC4OCCO4)c(Nc4ccncc4)n3)c3ccccc32)c(F)c1` [Example 2-2-15, 5-(1,3-dioxolan-2-ylmethyl)-2-[1-(4-ethoxy-2,6-difluorobenzyl)-1H-indazol-3-yl]-N-(pyridin-4-yl)pyrimidin-4-amine], 14 nM corresponded to half-maximal inhibition under setting [1] (IC50). On the same count and under the same terms, the figure for `COCCOc1cc(F)c(Cn2nc(-c3nc4c(c(Nc5cc(C)ncc5C)n3)CNC4)c3ccccc32)c(F)c1` [Example 2-9-26, 2-{1-[2,6-difluoro-4-(2-methoxy-ethoxy)benzyl]-1H-indazol-3-yl}-N-(2,5-dimethylpyridin-4-yl)-6,7-dihydro-5H-pyrrolo[3,4-d]pyr-imidin-4-amine] is 180 nM; for `Cc1nccc(Nc2nc(-c3nn(Cc4c(F)cc(OCCO)cc4F)c4ccccc34)nc(C)c2F)n1` [Example 2-6-32, 2-{3,5-difluoro-4-[(3-{5-fluoro-4-methyl-6-[(2-methylpyrimidin-4-yl)amino]pyrimidin-2-yl}-1H-indazol-1-yl)methyl]phenoxy}ethanol] it is 210 nM. For the molecule `Cc1cc(Nc2cc(C(C)C)nc(-c3nn(Cc4c(F)cc(OCCO)cc4F)c4ccccc34)n2)c(C)cn1` [Example 2-6-30, 2-{4-[(3-{4-[(2,5-dimethylpyridin-4-yl)amino]-6-isopropylpyrimidin-2-yl}-1H-indazol-1-yl)methyl]-3,5-difluorophenoxy} ethanol], under setting [2], the IC50 turned out to be 3200 nM.

For `COCCOc1cc(F)c(Cn2nc(-c3nc(Nc4ccnc(C)n4)cc(C(C)C)n3)c3ccccc32)c(F)c1` [Example 2-12-72, 2-{1-[2,6-difluoro-4-(2-methoxyethoxy)benzyl]-1H-indazol-3-yl}-6-isopropyl-N-(2-methylpyrimidin-4-yl)pyrimidin-4-amine], the IC50 under setting [1] was determined as 670 nM.

As to `COCCOc1cc(F)c(Cn2nc(-c3nc(Nc4cc(C)ncc4C)cc(C(C)C)n3)c3ccccc32)c(F)c1` [Example 2-12-74, 2-{1-[2,6-difluoro-4-(2-methoxyethoxy)benzyl]-1H-indazol-3-yl}-N-(2,5-dimethylpyridin-4-yl)-6-isopropylpyrimidin-4-amine], the IC50 under setting [2] amounted to 180 nM. The molecule `CCOc1cc(F)c(Cn2nc(-c3nc4c(c(Nc5ccncc5)n3)CCCC4)c3ccccc32)c(F)c1` [Example 2-19-21, 2-[1-(4-ethoxy-2,6-difluorobenzyl)-1H-indazol-3-yl]-N-(pyridin-4-yl)-5,6,7,8-tetrahydroquinazolin-4-amine] had a half-maximal inhibitory concentration (IC50) under setting [1] of 12 nM. Under setting [1], `COCCOc1cc(F)c(Cn2nc(-c3nc4c(c(Nc5ccnc(NC(C)=O)c5)n3)CCC(C)(C)C4)c3ccccc32)c(F)c1` [Example 2-15-12, N-{4-[(2-{1-[2,6-difluoro-4-(2-methoxyethoxy)benzyl]-1H-indazol-3-yl}-7,7-dimethyl-5,6,7,8-tetrahydroquinazolin-4-yl)amino]pyridin-2-yl}acetamide] showed a concentration for half-maximal inhibition (IC50) of 21 nM. Turning to `CCOc1cc(F)c(Cn2nc(-c3ncc(CCOC)c(Nc4ccncc4)n3)c3ccccc32)c(F)c1` [Example 2-2-9, 2-[1-(4-ethoxy-2,6-difluorobenzyl)-1H-indazol-3-yl]-5-(2-methoxyethyl)-N-(pyridin-4-yl)pyrimidin-4-amine], under setting [1], the IC50 was 12 nM. As for `CCOc1cc(F)c(Cn2nc(-c3ncc(CCSC)c(Nc4ccncc4)n3)c3ccccc32)c(F)c1` [Example 2-2-1, 2-[1-(4-ethoxy-2,6-difluorobenzyl)-1H-indazol-3-yl]-5-[2-(methylsulfanyl)ethyl]-N-(pyridin-4-yl)pyrimidin-4-amine], the IC50 under setting [1] came out at 11 nM.

On to `Nc1cc(Nc2nc(-c3nn(Cc4c(F)cc(OCCO)cc4F)c4ccccc34)nc3c2CCC3)ccn1` [Example 2-4-7, 2-{4-[(3-{4-[(2-aminopyridin-4-yl)amino]-6,7-dihydro-5H-cyclopenta[d]pyrimidin-2-yl}-1H-indazol-1-yl)methyl]-3,5-difluorophenoxy}ethanol], for which the IC50 under setting [1] was found to be 9.7 nM.

Take `CCOc1cc(F)c(Cn2nc(-c3nc4c(c(Nc5ccnc(C)c5)n3)CS(=O)(=O)C4)c3ccccc32)c(F)c1` [Example 2-19-5, 2-[1-(4-ethoxy-2,6-difluorobenzyl)-1H-indazol-3-yl]-N-(2-methylpyridin-4-yl)-5,7-dihydrothieno[3,4-d]pyrimidin-4-amine 6,6-dioxide]: the IC50 under setting [1] was found to be 140 nM. The molecule `CCOc1cc(F)c(Cn2nc(-c3nc(C)cc(Nc4ccncc4)n3)c3ccccc32)c(F)c1` [Example 2-12-1, 2-[1-(4-ethoxy-2,6-difluorobenzyl)-1H-indazol-3-yl]-6-methyl-N-(pyridin-4-yl)pyrimidin-4-amine] registered an IC50 under setting [1] of 8.4 nM. Under setting [1], `COCCOc1cc(F)c(Cn2nc(-c3nc4c(c(Nc5ccnc(C)n5)n3)CCC(C)(C)C4)c3ccccc32)c(F)c1` [Example 2-15-9, 2-{1-[2,6-difluoro-4-(2-methoxyethoxy)benzyl]-1H-indazol-3-yl}-7,7-dimethyl-N-(2-methylpyrimidin-4-yl)-5,6,7,8-tetrahydroquinazolin-4-amine] gave an IC50 of 81 nM. On the same count and under the same terms, in the case of `CCOc1cc(F)c(Cn2nc(-c3nc4c(c(Nc5ccncc5)n3)COC4)c3ccccc32)c(F)c1` [Example 2-14-10, 2-[1-(4-ethoxy-2,6-difluorobenzyl)-1H-indazol-3-yl]-N-(pyridin-4-yl)-5,7-dihydrofuro[3,4-d]pyrimidin-4-amine] it was 7 nM; in that of `COCCOc1cc(F)c(Cn2nc(-c3nc4c(c(Nc5ccncc5OC)n3)CCCCC4)c3ccccc32)c(F)c1` [Example 2-12-70, 2-{1-[2,6-difluoro-4-(2-methoxyethoxy)benzyl]-1H-indazol-3-yl}-N-(3-methoxypyridin-4-yl)-6,7,8,9-tetrahydro-5H-cyclohepta[d]pyrimidin-4-amine], 9.9 nM; in that of `CCOc1cc(F)c(Cn2nc(-c3nc4c(c(Nc5ccncc5)n3)CCN(Cc3ccccc3)C4)c3ccccc32)c(F)c1` [Example 2-12-15, 7-Benzyl-2-[1-(4-ethoxy-2,6-difluorobenzyl)-1H-indazol-3-yl]-N-(pyridin-4-yl)-5,6,7,8-tetrahydropyrido[3,4-d]pyrimidin-4-amine], 68 nM. As to `CCOc1cc(F)c(Cn2nc(-c3nc(C)cc(Nc4ccncc4O)n3)c3ccccc32)c(F)c1` [Example 2-12-80, 4-({2-[1-(4-ethoxy-2,6-difluorobenzyl)-1H-indazol-3-yl]-6-methylpyrimidin-4-yl}amino)pyridin-3-ol], the IC50 under setting [2] came to 51 nM.

Turning to `COCCOc1cc(F)c(Cn2nc(-c3nc(C)cc(Nc4ccncc4OC(F)(F)F)n3)c3ccccc32)c(F)c1` [Example 2-12-78, 2-{1-[2,6-difluoro-4-(2-methoxyethoxy)benzyl]-1H-indazol-3-yl}-6-methyl-N-[3-(trifluoromethoxy)pyr-idin-4-yl]pyrimidin-4-amine], under setting [2], the IC50 was found to be 12 nM.

Take `COCCOc1cc(F)c(Cn2nc(-c3nc4c(c(Nc5ccncc5Cl)n3)CNC4)c3ccccc32)c(F)c1` [Example 2-9-24, N-(3-chloropyridin-4-yl)-2-{1-[2,6-difluoro-4-(2-meth-oxyethoxy)benzyl]-1H-indazol-3-yl}-6,7-dihydro-5H-pyrrolo[3,4-d]pyrimidin-4-amine]: the half-inhibitory concentration (IC50) under setting [1] stood at 38 nM.

On to `COCCOc1cc(F)c(Cn2nc(-c3ncc(C4CCN(CC(F)(F)F)CC4)c(Nc4ccnc(C)n4)n3)c3ccccc32)c(F)c1` [Example 2-20-10, 2-{1-[2,6-difluoro-4-(2-methoxyethoxy)benzyl]-1H-indazol-3-yl}-N-(2-methylpyrimidin-4-yl)-5-[1-(2,2,2-trifluoroethyl)piperidin-4-yl]pyrimidin-4-amine], for which the IC50 under setting [1] amounted to 290 nM.

On to `CCOc1cc(F)c(Cn2nc(-c3ncc(CCCOC)c(Nc4ccncc4)n3)c3ccccc32)c(F)c1` [Example 2-2-11, 2-[1-(4-ethoxy-2,6-difluorobenzyl)-1H-indazol-3-yl]-5-(3-methoxypropyl)-N-(pyridin-4-yl)pyrimidin-4-amine], for which, under setting [1], the IC50 was found to be 17 nM. Same read-out and setting: in the case of `COCCOc1cc(F)c(Cn2nc(-c3ncc(C4CCN(CC(F)(F)F)CC4)c(Nc4ccncc4Cl)n3)c3ccccc32)c(F)c1` [Example 2-20-8, N-(3-chloropyridin-4-yl)-2-{1-[2,6-difluoro-4-(2-methoxyethoxy)benzyl]-1H-indazol-3-yl}-5-[1-(2,2,2-trifluoroethyl)piperidin-4-yl]pyrimidin-4-amine] it was more than 20000 nM.

The record behind these values is patent US20170275270A1, “BENZYL SUBSTITUTED INDAZOLES” (Bayer Pharma Aktiengesellschaft, priority 2014, published 2017).
